Source: paper PMC9014410, “Discovery of V-0219: A Small-Molecule Positive Allosteric Modulator of the Glucagon-Like Peptide-1 Receptor toward Oral Treatment for “Diabesity”” (Journal of Medicinal Chemistry, 2022)
Blank lines part the entries; values can stand above or below the molecule they belong to.

What was measured:
INS-1 β-cells = assay: Insulin secretion by rat INS-1 / INS-1E insulinoma cells; format: cell-based; conditions: INS-1E cells, 0.5 mM glucose, single representative experiment
Description: The incubation was done using two types of culture media, defined as low glucose (0.5–3 mM) and high glucose (15 mM). […] Incubation with compounds lasted 30 min, and then the media was collected, centrifuged at 4 °C for 2 min until assayed for insulin using commercial ELISA kit.

EndoC-βH1 cells = assay: Insulin secretion by human pancreatic EndoC-βH1 cells; format: cell-based; conditions: high glucose concentration
Description: Both cell lines were cultured in RPMI 1640 medium supplemented with 10% fetal calf serum as described. Cell monolayers were incubated at 37 °C in a 7.5% CO2 atmosphere. For insulin secretion studies, cells were detached, washed once with glucose-free medium and placed in 48 multiwell plates (100,000 cells per well) and kept in glucose-free medium for 1.5 h prior to incubation with drugs. The incubation was done using two types of culture media, defined as low glucose (0.5–3 mM) and high glucose (15 mM). […] Incubation with compounds lasted 30 min, and then the media was collected, centrifuged at 4 °C for 2 min until assayed for insulin using commercial ELISA kit.

hGLP-1R = hGLP-1R (Homo sapiens, UniProt P43220); assay: cAMP accumulation in HEK-293 cells expressing hGLP-1R (HEK-GLP-1 cells); format: cell-based; conditions: HEK293, read-out: Potentiation of GLP-1 Emax at 10 ?M in a cAMP assay (%); 10 ?M compound (supplementary csv)
hGLP-1R, sequence (P43220 24-463): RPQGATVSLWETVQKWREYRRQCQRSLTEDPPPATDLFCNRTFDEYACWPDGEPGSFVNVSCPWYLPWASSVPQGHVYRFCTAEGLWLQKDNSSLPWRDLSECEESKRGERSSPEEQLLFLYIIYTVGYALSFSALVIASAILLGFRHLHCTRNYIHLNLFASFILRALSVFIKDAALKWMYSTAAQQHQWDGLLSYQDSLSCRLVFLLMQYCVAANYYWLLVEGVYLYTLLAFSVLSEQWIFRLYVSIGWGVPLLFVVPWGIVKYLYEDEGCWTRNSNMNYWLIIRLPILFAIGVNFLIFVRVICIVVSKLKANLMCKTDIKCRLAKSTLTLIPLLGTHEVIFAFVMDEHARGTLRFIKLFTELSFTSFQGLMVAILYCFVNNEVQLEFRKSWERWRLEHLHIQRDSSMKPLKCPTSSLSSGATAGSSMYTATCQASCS
Description: After this time the culture medium was replaced by 20 μL fresh Opti-MEM containing 500 μM IBMX and 100 μM K579 and incubated with gentle stirring for 10 min at rt. […] Concentration-response curves were fitted to a 4-parameter logistic equation by using GraphPad Prism 2.1 software.

Emax (hGLP-1R): < 30%
SMILES: O=[N+]([O-])c1ccc(S(=O)(=O)NC2CCN(Cc3nc(-c4ccc(C(F)(F)F)cc4)no3)CC2)cc1 [S6]

Emax (hGLP-1R): < 30%
SMILES: O=S(=O)(NC1CCN(Cc2nc(-c3ccc(C(F)(F)F)cc3)no2)CC1)c1cccc(F)c1 [S13]

Emax (hGLP-1R): < 30%
SMILES: O=C(CC1CCN(Cc2nc(-c3ccc(C(F)(F)F)cc3)no2)CC1)NS(=O)(=O)c1ccc(F)cc1 [S57]

Emax (hGLP-1R): < 30%
SMILES: O=C(NS(=O)(=O)c1cccc(F)c1)C1CCN(Cc2nc(-c3ccc(C(F)(F)F)cc3)no2)CC1 [S42]

Continued, molecule first:

SMILES: Cl.NC(=O)C1CCN(Cc2nc(-c3ccc(C(F)(F)F)cc3)no2)CC1 [compound 7, 1-({3-[4-(Trifluoromethyl)phenyl]-1,2,4-oxadiazol-5-yl}methyl)piperidine-4-carboxamide]
melting point: 187 to 188 °C

SMILES: FC(F)(F)c1ccc(-c2noc(CN3CCC[C@H](CN4CCOCC4)C3)n2)cc1 [(R)-9, (−)-4-{[(3R)-1-({3-[4-(Trifluoromethyl)phenyl]-1,2,4-oxadiazol-5-yl}methyl)piperidin-3-yl]methyl}morpholine]
Insulin secreted (INS-1 β-cells; 0.1 nM test substance): 19 ng/mL
Insulin secreted (INS-1 β-cells; 1 nM test substance): 31 ng/mL
Insulin secreted (INS-1 β-cells; 10 nM test substance): 39 ng/mL
potentiation of insulin secretion stimulated by GLP-1 (in words) (EndoC-βH1 cells): similarly potentiate insulin secretion stimulated by GLP-1

SMILES: CC[C@H](C)[C@H](NC(=O)[C@H](Cc1ccccc1)NC(=O)[C@H](CCC(=O)O)NC(=O)[C@H](CCCCN)NC(=O)[C@H](C)NC(=O)[C@H](C)NC(=O)[C@H](CCC(N)=O)NC(=O)CNC(=O)[C@H](CCC(=O)O)NC(=O)[C@H](CC(C)C)NC(=O)[C@H](Cc1ccc(O)cc1)NC(=O)[C@H](CO)NC(=O)[C@H](CO)NC(=O)[C@@H](NC(=O)[C@H](CC(=O)O)NC(=O)[C@H](CO)NC(=O)[C@@H](NC(=O)[C@H](Cc1ccccc1)NC(=O)[C@@H](NC(=O)CNC(=O)[C@H](CCC(=O)O)NC(=O)[C@H](C)NC(=O)[C@@H](N)Cc1c[nH]cn1)[C@@H](C)O)[C@@H](C)O)C(C)C)C(=O)N[C@@H](C)C(=O)N[C@@H](Cc1c[nH]c2ccccc12)C(=O)N[C@@H](CC(C)C)C(=O)N[C@H](C(=O)N[C@@H](CCCCN)C(=O)NCC(=O)N[C@@H](CCCNC(=N)N)C(N)=O)C(C)C [GLP-1, GLP-1(7-36)-NH2, reference compound]
Insulin secreted (INS-1 β-cells; 0.1 nM test substance): 25 ng/mL
Insulin secreted (INS-1 β-cells; 1 nM test substance): 28 ng/mL
Insulin secreted (INS-1 β-cells; 10 nM test substance): 34 ng/mL
Insulin secreted (INS-1 β-cells; 100 nM test substance): 32 ng/mL

SMILES: Clc1ccccc1-c1noc(CN2CCCC(CN3CCOCC3)C2)n1 (centres unmarked) [S79]
Emax (hGLP-1R): < 30%
